For six molecules, IC50 results are on record in US8946439B2, “Amide compounds, compositions and uses thereof” (Evotec AG, priority 2008, dated 2015).

For one test, the target named is T1, hP2X3 (Homo sapiens, UniProt P56373).
T1 construct: expressed in transfected cells; host or cells: e.g. HEK293 or 1321N1
T1 sequence (P56373 1-397): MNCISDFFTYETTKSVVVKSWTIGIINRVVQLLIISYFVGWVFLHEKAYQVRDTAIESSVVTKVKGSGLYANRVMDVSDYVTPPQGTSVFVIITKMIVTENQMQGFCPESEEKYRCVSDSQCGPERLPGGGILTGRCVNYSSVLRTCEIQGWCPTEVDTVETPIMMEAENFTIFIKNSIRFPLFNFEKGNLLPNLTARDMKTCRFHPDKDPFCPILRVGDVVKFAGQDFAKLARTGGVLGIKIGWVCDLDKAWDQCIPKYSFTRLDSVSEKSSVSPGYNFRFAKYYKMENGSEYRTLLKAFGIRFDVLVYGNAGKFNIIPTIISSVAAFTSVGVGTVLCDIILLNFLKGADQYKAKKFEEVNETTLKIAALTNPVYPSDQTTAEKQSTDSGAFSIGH
In words: Calcium uptake assay (P2X antagonist assay), P2X3 homomer. Type of test: cell-based. Particulars: hP2X3. The gist of the method:
(§1)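 Stably or transiently transfected HEK293 or 1321N1 cells; the heteromer is made by adding P2X3 to a P2X2-stable line, with heteromer function isolated pharmacologically. The peak-minus-baseline FLIPR calcium signal gives % inhibition and a 4-parameter-logistic IC50.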

The target of a further test is T2, hP2X2/3H (Homo sapiens, UniProt P56373+Q9UBL9).
T2 construct: expressed in transfected cells; host or cells: e.g. HEK293 or 1321N1
T2 sequence (Q9UBL9 1-471): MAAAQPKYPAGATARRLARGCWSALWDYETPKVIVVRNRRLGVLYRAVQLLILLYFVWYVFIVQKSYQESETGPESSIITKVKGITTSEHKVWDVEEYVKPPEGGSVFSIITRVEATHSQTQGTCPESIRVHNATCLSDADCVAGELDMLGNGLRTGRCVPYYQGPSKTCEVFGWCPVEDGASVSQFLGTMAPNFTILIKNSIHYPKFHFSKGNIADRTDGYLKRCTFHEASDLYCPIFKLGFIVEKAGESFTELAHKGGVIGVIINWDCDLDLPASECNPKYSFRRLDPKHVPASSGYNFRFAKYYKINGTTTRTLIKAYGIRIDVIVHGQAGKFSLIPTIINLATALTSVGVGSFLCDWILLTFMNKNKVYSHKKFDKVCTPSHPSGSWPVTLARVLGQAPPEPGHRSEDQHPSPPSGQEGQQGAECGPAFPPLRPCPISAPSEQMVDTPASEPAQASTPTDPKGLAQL
T2 sequence (P56373 1-397): T1 sequence (P56373 1-397)
In words: Calcium uptake assay (P2X antagonist assay), P2X2/3 heteromer. Type of test: cell-based. Particulars: hP2X2/3H. The gist of the method:
as §1

The mark [1] stands for this setting: Ca influx (calcium uptake assay), read-out: IC50 hP2X3.
The mark [2] stands for this setting: Ca influx (calcium uptake assay), read-out: IC50 hP2X2/3H.
[3] abbreviates: calcium uptake assay, read-out: IC50 hP2X3 (nM), Ca Influx.
The mark [4] stands for this setting: calcium uptake assay, read-out: IC50 hP2X2/3H (nM), Ca Influx.

The structures appear in SMILES notation. Like-named read-outs stand apart in the source and are kept apart here.

As to `Cc1ccc(-c2cc(C(=O)N[C@@H](C)CO)cc(S(=O)(=O)C(C)C)c2)cc1` [Compound 288], the IC50 is under 100 nM on hP2X3 (setting [1]) and over 1000 nM at hP2X2/3H (setting [2]).
In the case of `COc1ncc([C@@H](C)NC(=O)c2cc(-c3ccc(C)cc3)cc(S(C)(=O)=O)c2)cn1` [Compound 114], the IC50 was under 100 nM on hP2X3 (setting [3]) and 100 to 500 nM on hP2X2/3H (setting [4]).
As to `Cc1ccc(-c2cc(OCC3CCCO3)cc(C(=O)N[C@H](C)c3ccc(C)nc3)c2)c(C#N)c1` (stereo partly drawn) [Compound 312], the IC50 on hP2X3 (setting [1]) and on hP2X2/3H (setting [2]) was under 100 nM in each case.
Turning to `COc1ncc(CNC(=O)c2cc(C(=O)N3CCCC3)cc(-c3ccc(C)cc3)c2)c(N)n1` [Compound 79], the IC50 at hP2X3 (setting [3]) is 100 to 500 nM; at hP2X2/3H (setting [4]), 501 to 1000 nM.
On to `Cc1ccc(-c2cc(C(=O)NC(C)c3ccc(Cl)c(S(C)(=O)=O)c3)cc(S(C)(=O)=O)c2)nc1` (stereo not drawn) [Compound 371], for which the IC50 was under 100 nM on hP2X3 (setting [1]) and 100 to 500 nM on hP2X2/3H (setting [2]).
For `CCC(O)c1cc(C(=O)N[C@H](C)c2cnc(C)nc2)cc(-c2ccc(C)cc2C#N)c1` (stereo partly drawn) [Compound 396], in that order: under 100 nM and under 100 nM.
